Tested on: patients with advanced solid tumors
Assay: Phase Ia safety, tolerability, DLT/MTD (TRAEs graded by NCI-CTCAE v4.03)
Format: in vivo
From the text: This is a phase I clinical study (ClinicalTrials.gov identifier: NCT03544905), including a phase Ia study of oral CYH33 monotherapy in patients with advanced solid tumors, and a phase Ib study of oral CYH33 monotherapy focused on several specific tumors. […] The phase Ia study included dose-escalation stage and dose-expansion stage. […] The secondary outcomes also included evaluation of changes in PD biomarkers in response to CYH33 treatment (including proteomics of blood specimens at baseline and during treatment, immunocyte subpopulation ratios and molecular markers, cell free DNA in peripheral blood, and blood glucose). However, in compliance with the local human genetic resource regulations and procedures, peripheral blood samples were not obtained for PD biomarker analysis, therefore, only fasting blood glucose was obtained and used as a PD biomarker for CYH33 treatment. The exploratory objective was the relationship between the efficacy of CYH33 treatment and tumor biomarker status.
An accelerated titration design (ATD) and an mTPI-2 design were adopted to guide toxicity monitoring and dose escalation. The target DLT rate was 30%, with the acceptable toxicity probability interval of (0.25, 0.35). For the first two preset doses of 1 mg and 5 mg CYH33 in the ATD phase, if there were no grade ≥2 TRAEs during the DLT observation period, 100% dose escalation was allowed in the subsequent dose group. After entering the mTPI-2 phase, the SMC guidance was followed to determine the dose level, dosing frequency, and number of subjects in the next dose group, based on the previously obtained safety and PK data for that dose group. If necessary, it was permitted to add an additional dose level between two explored dose levels for further investigation.
During the phase Ia study, the safe and probably effective dose will be delivered to the expansion cohort to further investigate the safety, tolerability and efficacy of this dose level, while the dose escalation study can be continued simultaneously. If necessary, it is permitted to insert a new dose level between two explored dose levels for exploration. The subjects to be enrolled in the expansion cohort are patients with advanced solid tumors with PIK3CA gene mutations. When there are two or more dose groups at dose expansion simultaneously, the allocation ratio of the number of subjects in each dose group should be as close as possible to the ratio of ORR in each dose group. In principle, when the cumulative ORR at a certain dose level is <10%, the number of subjects in this dose group will be determined by the SMC. A total of approximately 60 patients are expected to be enrolled in the whole phase Ia study.
The secondary endpoints included preliminary efficacy assessments based on ORR, PFS, DoR, DCR, and clinical benefit rate, assessed per RECIST 1.1,PK parameters for CYH33 and its metabolite I27, and changes in PD biomarkers in response to CYH33 treatment.

Structure (SMILES): COC(=O)Nc1cc(C(F)(F)F)c(-c2nc(N3CCOCC3)c3cc(CN4CCN(S(C)(=O)=O)CC4)cn3n2)cn1 [CYH33, methyl (5-(6-((4-(methylsulfonyl)piperazin-1-yl)methyl)−4-morpholinopyrrolo[2,1-f][1,2,4]triazin-2-yl)−4-(trifluoromethyl)pyridin-2-yl)carbamate]
- Blood glucose increased, Grade ≥ 3 TRAE (30 mg QD, n = 12): 0 n (%)
- Decreased appetite, Grade ≥ 3 TRAE (30 mg QD, n = 12): 0 n (%)
- Decreased appetite, all-grade TRAE (30 mg QD, n = 12): 4 (33.3) n (%)
- Diabetic ketosis, Grade ≥ 3 TRAE (30 mg QD, n = 12): 1 (8.3) n (%)
- Diarrhea, Grade ≥ 3 TRAE (30 mg QD, n = 12): 0 n (%)
- Diarrhea, all-grade TRAE (30 mg QD, n = 12): 2 (16.7) n (%)
- Dizziness, Grade ≥ 3 TRAE (30 mg QD, n = 12): 0 n (%)
- Electrocardiogram QT prolonged, Grade ≥ 3 TRAE (30 mg QD, n = 12): 0 n (%)
- Face oedema, Grade ≥ 3 TRAE (30 mg QD, n = 12): 0 n (%)
- Facial edema, all-grade TRAE (30 mg QD, n = 12): 4 (33.3) n (%)
- Fatigue, Grade ≥ 3 TRAE (30 mg QD, n = 12): 0 n (%)
- Fatigue, all-grade TRAE (30 mg QD, n = 12): 2 (16.7) n (%)
- Generalized oedema, Grade ≥ 3 TRAE (30 mg QD, n = 12): 1 (8.3) n (%)
- Grade ≥ 3 TRAEs in all patients (30 mg QD, n = 12): 7 (58.3) n (%)
- Hyperglycemia, Grade ≥ 3 TRAE (30 mg QD, n = 12): 7 (58.3) n (%)
- Hyperglycemia, all-grade TRAE (30 mg QD, n = 12): 11 (91.7) n (%)
- Hyponatremia, all-grade TRAE (30 mg QD, n = 12): 4 (33.3) n (%)
- Mouth ulceration, Grade ≥ 3 TRAE (30 mg QD, n = 12): 0 n (%)
- Nausea, Grade ≥ 3 TRAE (30 mg QD, n = 12): 0 n (%)
- Nausea, all-grade TRAE (30 mg QD, n = 12): 6 (50.0) n (%)
- Peripheral edema, Grade ≥ 3 TRAE (30 mg QD, n = 12): 0 n (%)
- Peripheral edema, all-grade TRAE (30 mg QD, n = 12): 4 (33.3) n (%)
- Rash, Grade ≥ 3 TRAE (30 mg QD, n = 12): 0 n (%)
- Rash, all-grade TRAE (30 mg QD, n = 12): 2 (16.7) n (%)
- TRAEs leading to death (30 mg QD, n = 12): 0 n (%)
- TRAEs leading to dose discontinuation (30 mg QD, n = 12): 1 (8.3) n (%)
- TRAEs leading to dose interruption (30 mg QD, n = 12): 10 (83.3) n (%)
- TRAEs leading to dose reduction (30 mg QD, n = 12): 0 n (%)
- TRAEs occurring in ≥ 10% of patients (30 mg QD, n = 12): 12 (100) n (%)
- Treatment-related serious adverse events (30 mg QD, n = 12): 1 (8.3) n (%)
- Vomiting, all-grade TRAE (30 mg QD, n = 12): 3 (25.0) n (%)
- Weight loss, all-grade TRAE (30 mg QD, n = 12): 4 (33.3) n (%)
- White blood cell count decreased, Grade ≥ 3 TRAE (30 mg QD, n = 12): 0 n (%)
- Blood glucose increased, Grade ≥ 3 TRAE (40 mg QD, n = 24): 0 n (%)
- Decreased appetite, Grade ≥ 3 TRAE (40 mg QD, n = 24): 1 (4.2) n (%)
- Decreased appetite, all-grade TRAE (40 mg QD, n = 24): 12 (50.0) n (%)
- Diabetic ketosis, Grade ≥ 3 TRAE (40 mg QD, n = 24): 0 n (%)
- Diarrhea, Grade ≥ 3 TRAE (40 mg QD, n = 24): 1 (4.2) n (%)
- Diarrhea, all-grade TRAE (40 mg QD, n = 24): 7 (29.2) n (%)
- Dizziness, Grade ≥ 3 TRAE (40 mg QD, n = 24): 1 (4.2) n (%)
- Electrocardiogram QT prolonged, Grade ≥ 3 TRAE (40 mg QD, n = 24): 0 n (%)
- Face oedema, Grade ≥ 3 TRAE (40 mg QD, n = 24): 1 (4.2) n (%)
- Facial edema, all-grade TRAE (40 mg QD, n = 24): 4 (16.7) n (%)
- Fatigue, Grade ≥ 3 TRAE (40 mg QD, n = 24): 1 (4.2) n (%)
- Fatigue, all-grade TRAE (40 mg QD, n = 24): 6 (25.0) n (%)
- Generalized oedema, Grade ≥ 3 TRAE (40 mg QD, n = 24): 0 n (%)
- Grade ≥ 3 TRAEs in all patients (40 mg QD, n = 24): 19 (79.2) n (%)
- Hyperglycemia, Grade ≥ 3 TRAE (40 mg QD, n = 24): 17 (70.8) n (%)
- Hyperglycemia, all-grade TRAE (40 mg QD, n = 24): 23 (95.8) n (%)
- Hyponatremia, all-grade TRAE (40 mg QD, n = 24): 2 (8.3) n (%)
- Mouth ulceration, Grade ≥ 3 TRAE (40 mg QD, n = 24): 1 (4.2) n (%)
- Mouth ulceration, all-grade TRAE (40 mg QD, n = 24): 5 (20.8) n (%)
- Nausea, Grade ≥ 3 TRAE (40 mg QD, n = 24): 0 n (%)
- Nausea, all-grade TRAE (40 mg QD, n = 24): 9 (37.5) n (%)
- Peripheral edema, Grade ≥ 3 TRAE (40 mg QD, n = 24): 4 (16.7) n (%)
- Peripheral edema, all-grade TRAE (40 mg QD, n = 24): 8 (33.3) n (%)
- Rash, Grade ≥ 3 TRAE (40 mg QD, n = 24): 1 (4.2) n (%)
- Rash, all-grade TRAE (40 mg QD, n = 24): 6 (25.0) n (%)
- TRAEs leading to death (40 mg QD, n = 24): 0 n (%)
- TRAEs leading to dose discontinuation (40 mg QD, n = 24): 2 (8.3) n (%)
- TRAEs leading to dose interruption (40 mg QD, n = 24): 19 (79.2) n (%)
- TRAEs leading to dose reduction (40 mg QD, n = 24): 5 (20.8) n (%)
- TRAEs occurring in ≥ 10% of patients (40 mg QD, n = 24): 23 (95.8) n (%)
- Treatment-related serious adverse events (40 mg QD, n = 24): 4 (16.7) n (%)
- Vomiting, all-grade TRAE (40 mg QD, n = 24): 6 (25.0) n (%)
- Weight loss, all-grade TRAE (40 mg QD, n = 24): 9 (37.5) n (%)
- White blood cell count decreased, Grade ≥ 3 TRAE (40 mg QD, n = 24): 1 (4.2) n (%)
- DLT rate (40 mg dose level, 1 out of 6 DLT evaluable patients): 16.7%
- patients with DLT: grade 3 hyperglycemia (40 mg, dose-escalation stage (19 patients)): 1
- patients with DLT: grade 3 hyperglycemia and grade 3 nausea (60 mg, dose-escalation stage (19 patients)): 2
- Blood glucose increased, Grade ≥ 3 TRAE (1–20 mg QD, n = 10): 0 n (%)
- Decreased appetite, Grade ≥ 3 TRAE (1–20 mg QD, n = 10): 0 n (%)
- Decreased appetite, all-grade TRAE (1–20 mg QD, n = 10): 3 (30.0) n (%)
- Diabetic ketosis, Grade ≥ 3 TRAE (1–20 mg QD, n = 10): 0 n (%)
- Diarrhea, Grade ≥ 3 TRAE (1–20 mg QD, n = 10): 0 n (%)
- Diarrhea, all-grade TRAE (1–20 mg QD, n = 10): 3 (30.0) n (%)
- Dizziness, Grade ≥ 3 TRAE (1–20 mg QD, n = 10): 0 n (%)
- Electrocardiogram QT prolonged, Grade ≥ 3 TRAE (1–20 mg QD, n = 10): 1 (10.0) n (%)
- Face oedema, Grade ≥ 3 TRAE (1–20 mg QD, n = 10): 0 n (%)
- Facial edema, all-grade TRAE (1–20 mg QD, n = 10): 0 n (%)
- Fatigue, Grade ≥ 3 TRAE (1–20 mg QD, n = 10): 0 n (%)
- Fatigue, all-grade TRAE (1–20 mg QD, n = 10): 1 (10.0) n (%)
